According to patent US20200131156A1, “ARYLSULFONYLPYROLECARBOXAMIDE DERIVATIVES AS Kv3 POTASSIUM CHANNEL ACTIVATORS” (H. Lundbeck A/S, priority 2018, published 2020):

Target: T1, hKv3.1b (Homo sapiens, UniProt P48547)
T1 construct: expressed in transfected cells
T1 sequence (P48547 1-585 isoform P48547-2): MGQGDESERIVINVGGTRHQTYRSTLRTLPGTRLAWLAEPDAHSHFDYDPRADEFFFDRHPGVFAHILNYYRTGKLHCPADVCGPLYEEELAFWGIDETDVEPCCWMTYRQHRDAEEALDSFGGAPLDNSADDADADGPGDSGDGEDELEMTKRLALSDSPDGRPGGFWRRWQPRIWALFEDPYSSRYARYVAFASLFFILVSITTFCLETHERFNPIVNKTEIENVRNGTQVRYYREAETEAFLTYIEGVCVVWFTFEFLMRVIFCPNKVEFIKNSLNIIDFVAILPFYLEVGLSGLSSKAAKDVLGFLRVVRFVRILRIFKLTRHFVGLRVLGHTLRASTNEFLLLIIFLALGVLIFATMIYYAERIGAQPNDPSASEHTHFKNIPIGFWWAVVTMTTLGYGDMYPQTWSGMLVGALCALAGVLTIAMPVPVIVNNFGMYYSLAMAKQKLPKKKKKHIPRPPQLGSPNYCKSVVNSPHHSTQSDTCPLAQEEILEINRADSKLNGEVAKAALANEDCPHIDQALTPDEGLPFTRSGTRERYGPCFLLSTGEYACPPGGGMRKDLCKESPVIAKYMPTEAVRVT
Assay: Automated patch clamp (QPatch-16x) on HEK-293 cells stably expressing hKv3.1b
Type: cell-based
Details: for ECdelta5 mV: concentration needed to shift the activation threshold 5 mV; for Threshold Shift: maximum absolute hyperpolarizing shift of activation threshold at tested concentrations 0.37-30 μM
Protocol: HEK-293 cells stably expressing hKv3.1b were used for the experiments. Cells were cultured in DMEM medium supplemented with 10% Fetal Bovine Serum, 100 ug/mL Geneticidin and 100 u/mL Penicillin/Streptomycin (all from Gibco). Cells were grown to 80-90% confluency at 37° C. and 5% CO2. On the day of the experiment the cells were detached from the tissue culture flasks by Detachin, resuspended in serum free medium containing 25 mM HEPES and transferred to the cell hotel of the QPatch. The cells were used for experiments 0-5 hours after detachment.
Patch-clamp recordings were performed using the automated recording system QPatch-16x (Sophion Bioscience, Denmark). Cells were centrifuged, SFM removed and the cells were resuspended in extracellular buffer containing (in mM): 145 NaCl, 4 KCl, 1 MgCl2, 2 CaCl2, 10 HEPES and 10 glucose (added fresh on the day of experiment); pH 7.4 adjusted with NaOH, 305 mOsm adjusted with sucrose.
Single cell whole-cell recordings were carried out using an intracellular solution containing (in mM): 120 KCl, 32.25/10 KOH/EGTA, 5.374 CaCl2, 1.75 MgCl2, 10 HEPES, 4 Na2ATP (added fresh on the day), pH 7.2 adjusted with KOH, […] adjusted with sucrose. Cell membrane potentials were held at −80 mV and currents were evoked by voltage steps (200 ms duration) from −70 mV to +10 mV (in 10 mV increments). Vehicle (0.33% DMSO) or increasing concentration of compound (I) were applied and the voltage protocol was run 3 times (resulting in 3 min cpd incubation time). Five increasing concentrations of compound (I) were applied to each cell.
Leak subtraction protocol was applied at −33% of the sweep amplitude, and serial resistance values were constantly monitored.
Any cell where serial resistance exceeded 25 MOhm, membrane resistance less than 200 MOhm or current size at −10 mV less than 200 pA was eliminated from the subsequent analysis.
Data analysis was performed using Sophion's QPatch assay software in combination with Microsoft Excel™ (Redmond, Wash., USA). Current voltage relationships were plotted from the peak current at the individual voltage steps normalized to the vehicle addition at 10 mV. The voltage threshold for channel activation was defined as 5% activation of the peak current at 10 mV in presence of vehicle. The activity of the compounds was described as the ability to shift this current voltage relationship to more hyperpolarized potentials and is given as the maximum absolute shift possible at the tested concentrations (0.37, 1.11, 3.33, 10, 30 μM). Concentration response curves were plotted from the threshold shift at the individual concentrations and were fitted excel fit model 205 sigmoidal dose-response model (fit=A+((B−A)/1+((C/x)^D)))), where A is the minimum value, B the maximum value, C the EC50 value and D the slope of the curve. The concentration needed to shift the threshold 5 mV was readout from this curve (ECdelta5 mV).

Row | ECdelta5 mV [nM] | Threshold Shift [mV] | SMILES
1 | 2300 | 12 | Cc1ccc(S(=O)(=O)n2ccc(C(=O)NCc3coc(C)n3)c2)cc1 [Compound 47, 1-(4-methylbenzene-1-sulfonyl)-N-[(2-methyl-1,3-oxazol-4-yl)methyl]-1H-pyrrole-3-carboxamide]
2 | 3500 | 14 | Cc1cnc(CNC(=O)c2ccn(S(=O)(=O)c3ccccc3)c2)c(Cl)n1 [Compound 113, 1-(benzenesulfonyl)-N-[(3-chloro-5-methylpyrazin-2-yl)methyl]-1H-pyrrole-3-carboxamide]
3 | 2000 | 23 | Cc1ccc(S(=O)(=O)n2ccc(C(=O)NCc3cnc(C)cn3)c2F)cc1 [Compound 88, 2-fluoro-1-(4-methylbenzene-1-sulfonyl)-N-[(5-methylpyrazin-2-yl)methyl]-1H-pyrrole-3-carboxamide]
4 | 1000 | 31 | COc1ccc(S(=O)(=O)n2ccc(C(=O)NCc3cnc(C)cn3)c2)c(Cl)c1 [Compound 104, 1-(2-chloro-4-methoxy-phenyl)sulfonyl-N-[(5-methylpyrazin-2-yl)methyl]pyrrole-3-carboxamide]
5 | 2100 | 13 | Cc1ccc(S(=O)(=O)n2ccc(C(=O)NCc3cscn3)c2)cc1 [Compound 49, 1-(4-methylbenzene-1-sulfonyl)-N-[(1,3-thiazol-4-yl)methyl]-1H-pyrrole-3-carboxamide]
6 | 1100 | 37 | Cc1ccc(S(=O)(=O)n2ccc(C(=O)NCc3cnc(C)cn3)c2)cc1 [Compound 25, N-[(5-methylpyrazin-2-yl)methyl]-1-(p-tolylsulfonyl) pyrrole-3-carboxamide]
7 | 2200 | 15 | Cc1ccc(S(=O)(=O)n2ccc(C(=O)NCc3ncc(C)o3)c2)cc1 [Compound 33, N-[(5-methyloxazol-2-yl)methyl]-1-(p-tolylsulfonyl)pyrrole-3-carboxamide]
8 | 1300 | 33 | COc1ccc(S(=O)(=O)n2ccc(C(=O)NCc3cnc(C)cn3)c2)cc1 [Compound 7, 1-(4-methoxyphenyl)sulfonyl-N-[(5-methylpyrazin-2-yl)methyl]pyrrole-3-carboxamide]
9 | 1800 | 36 | CNc1cnc(CNC(=O)c2ccn(S(=O)(=O)c3ccc(OC(F)F)cc3)c2)cn1 [Compound 107, 1-[4-(difluoromethoxy)benzene-1-sulfonyl]-N-{[5-(methylamino)pyrazin-2-yl]methyl}-1H-pyrrole-3-carboxamide]
10 | 1800 | 20 | Cc1cnc(CNC(=O)c2ccn(S(=O)(=O)c3ccc(C(F)(F)F)cc3)c2)cn1 [Compound 91, N-[(5-methylpyrazin-2-yl)methyl]-1-[4-(trifluoromethyl)benzene-1-sulfonyl]-1H-pyrrole-3-carboxamide]
11 | 3200 | 14 | Cc1noc(CNC(=O)c2ccn(S(=O)(=O)c3ccccc3C)c2)n1 [Compound 75, 1-(2-methylbenzene-1-sulfonyl)-N-[(3-methyl-1,2,4-oxadiazol-5-yl)methyl]-1H-pyrrole-3-carboxamide]
12 | 1200 | 24 | COc1ccc(S(=O)(=O)n2ccc(C(=O)NCc3cnc(C)cn3)c2)c(Br)c1 [Compound 105, 1-(2-bromo-4-methoxy-phenyl)sulfonyl-N-[(5-methylpyrazin-2-yl)methyl]pyrrole-3-carboxamide]
13 | 2800 | 20 | COc1ccc(S(=O)(=O)n2ccc(C(=O)NCc3ncc(C)cn3)c2)cc1 [Compound 72, 1-(4-methoxybenzene-1-sulfonyl)-N-[(5-methylpyrimidin-2-yl)methyl]-1H-pyrrole-3-carboxamide]
14 | 1900 | 17 | Cc1cc(CNC(=O)c2ccn(S(=O)(=O)c3ccccc3C)c2)on1 [Compound 78, 1-(2-methylbenzene-1-sulfonyl)-N-[(3-methyl-1,2-oxazol-5-yl)methyl]-1H-pyrrole-3-carboxamide]
15 | 2800 | 17 | Cc1ccc(S(=O)(=O)n2ccc(C(=O)NCc3nnc(C)s3)c2)cc1 [Compound 115, 1-(4-methylbenzene-1-sulfonyl)-N-[(5-methyl-1,3,4-thiadiazol-2-yl)methyl]-1H-pyrrole-3-carboxamide]
16 | 1700 | 23 | Cc1ccc(S(=O)(=O)n2ccc(C(=O)NCc3nc(C)no3)c2)cc1 [Compound 43, N-[(3-methyl-1,2,4-oxadiazol-5-yl)methyl]-1-(p-tolylsulfonyl)pyrrole-3-carboxamide]
17 | 660 | 23 | Cc1ccc(S(=O)(=O)n2ccc(C(=O)NCc3cnc(Cl)cn3)c2)cc1 [Compound 89, N-[(5-chloropyrazin-2-yl)methyl]-1-(4-methylbenzene-1-sulfonyl)-1H-pyrrole-3-carboxamide]
18 | 2500 | 13 | Cc1ccc(S(=O)(=O)n2ccc(C(=O)NCc3ccon3)c2)cc1 [Compound 52, 1-(4-methylbenzene-1-sulfonyl)-N-[(1,2-oxazol-3-yl)methyl]-1H-pyrrole-3-carboxamide]
19 | 4400 | 13 | O=C(NCc1cnccn1)c1ccn(S(=O)(=O)c2ccc(F)cc2)c1 [Compound 64, 1-(4-fluorobenzene-1-sulfonyl)-N-[(pyrazin-2-yl)methyl]-1H-pyrrole-3-carboxamide]
20 | 3100 | 17 | Cc1cnc(CNC(=O)c2ccn(S(=O)(=O)c3ccccc3F)c2)cn1 [Compound 4, 1-(2-fluorophenyl)sulfonyl-N-[(5-methylpyrazin-2-yl)methyl]pyrrole-3-carboxamide]
21 | 3100 | 17 | Cc1ccc(S(=O)(=O)n2ccc(C(=O)NCc3cn(C)nn3)c2)cc1 [Compound 41, N-[(1-methyltriazol-4-yl)methyl]-1-(p-tolylsulfonyl)pyrrole-3-carboxamide]
22 | 3200 | 18 | COc1ccc(S(=O)(=O)n2ccc(C(=O)NCc3cnc(C)cn3)c2)cc1F [Compound 97, 1-(3-fluoro-4-methoxy-phenyl)sulfonyl-N-[(5-methylpyrazin-2-yl)methyl]pyrrole-3-carboxamide]
23 | 3600 | 14 | Cc1ccc(S(=O)(=O)n2ccc(C(=O)NCc3ncon3)c2)cc1 [Compound 57, 1-(4-methylbenzene-1-sulfonyl)-N-[(1,2,4-oxadiazol-3-yl)methyl]-1H-pyrrole-3-carboxamide]
24 | 4000 | 15 | Cc1ccc(S(=O)(=O)n2cc(C(=O)NCc3cnc(C)cn3)cc2F)cc1 [Compound 87, 5-fluoro-1-(4-methylbenzene-1-sulfonyl)-N-[(5-methylpyrazin-2-yl)methyl]-1H-pyrrole-3-carboxamide]
25 | 1000 | 28 | O=C(NCc1cnccn1)c1ccn(S(=O)(=O)c2ccc(Cl)cc2)c1 [Compound 81, 1-(4-chlorobenzene-1-sulfonyl)-N-[(pyrazin-2-yl)methyl]-1H-pyrrole-3-carboxamide]
